Results: the supplement of paper PMC11451515

Columns and labels:
Conditions in all cases: 48 h
[1] = system: NOMO1; assay: cell viability relative to DMSO control; higher = less cytotoxic
Procedure, shortened: (§1)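 Viability is a per-plate percentage relative to DMSO wells, with cell-free wells as background. CellTiter-Glo One luminescence was read after 48 h at 37°C on 1536-well plates (5 μl) of NOMO1 or SEM (500 cells/well) or P12-Ichikawa (1000 cells/well) leukemia cells. The cells had been adapted for at least four passages in each medium and pin-dosed with library compounds in DMSO from 47 μM to 0.79 nM in 11 threefold steps.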

[2] = system: P12-Ichikawa; assay: as above
Procedure, shortened: as §1

[3] = system: SEM cells; assay: as above
Procedure, shortened: as §1

[4] = system: NOMO1; assay: AUC of viability dose-response curve (% viability x log10 dose units); higher = less sensitive
Procedure, shortened: (§2)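 In 1536-well plates, leukemia cells adapted to each medium (500 or 1000 cells/well) were exposed for 48 h at 37°C to library compounds in DMSO across 11 threefold doses, 47 μM down to 0.79 nM. Viability was read by CellTiter-Glo One luminescence and normalised per plate to DMSO and cell-free wells. A four-parameter log-logistic fit over log10 doses was integrated by trapezoidal rule. This yielded the area under the curve, with over-full-viability curves scaled and quality-control failures dropped.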

[5] = system: P12-Ichikawa; assay: as above
Procedure, shortened: as §2

[6] = system: SEM cells; assay: as above
Procedure, shortened: as §2

CC1=C(/C=C/C(C)=C/C=C/C(C)=C\C(=O)O)C(C)(C)CCC1
cell viability [%]
Conditions | [1] | [2] | [3]
HPLM + 10% dialyzed FBS, 0.000781 µM | 85.3 | 88.5 | 82.8
HPLM + 10% dialyzed FBS, 0.00234 µM | 99.5 | 91.7 | 84.8
HPLM + 10% dialyzed FBS, 0.00702 µM | 85.6 | 90.2 | 67.9
HPLM + 10% dialyzed FBS, 0.0211 µM | 92.5 | 93.4 | 103
HPLM + 10% dialyzed FBS, 0.0632 µM | 105 | 95.7 | 98.1
HPLM + 10% dialyzed FBS, 0.19 µM | 96.2 | 92.6 | 96.7
HPLM + 10% dialyzed FBS, 0.569 µM | 97.1 | 96.4 | 101
HPLM + 10% dialyzed FBS, 1.71 µM | 84.3 | 92.2 | 91.5
HPLM + 10% dialyzed FBS, 5.12 µM | 84.2 | 97.3 | 44.3
HPLM + 10% dialyzed FBS, 15.4 µM | 83.4 | 95.5 | 80.1
HPLM + 10% dialyzed FBS, 46.1 µM | 97.4 | 91.3 | 78.5
RPMI 5 mM glucose + 10% FBS, 0.000781 µM | 75.9 | 76.1 | 85
RPMI 5 mM glucose + 10% FBS, 0.00234 µM | 82.4 | 88.5 | 93.2
RPMI 5 mM glucose + 10% FBS, 0.00702 µM | 78.7 | 82.7 | 77.5
RPMI 5 mM glucose + 10% FBS, 0.0211 µM | 86.3 | 91 | 112
RPMI 5 mM glucose + 10% FBS, 0.0632 µM | 89.5 | 85.5 | 99.5
RPMI 5 mM glucose + 10% FBS, 0.19 µM | 97.2 | 89.7 | 107
RPMI 5 mM glucose + 10% FBS, 0.569 µM | 93.6 | 85.4 | 108
RPMI 5 mM glucose + 10% FBS, 1.71 µM | 84.1 | 79.6 | 107
RPMI 5 mM glucose + 10% FBS, 5.12 µM | 84.3 | 77.4 | 46.1
RPMI 5 mM glucose + 10% FBS, 15.4 µM | 86.6 | 84.5 | 98.2
RPMI 5 mM glucose + 10% FBS, 46.1 µM | 80.5 | 82.1 | 106
RPMI 5 mM glucose + 10% dialyzed FBS, 0.000781 µM | 82 | 80.4 | 68.1
RPMI 5 mM glucose + 10% dialyzed FBS, 0.00234 µM | 90.6 | 89.9 | 78.3
RPMI 5 mM glucose + 10% dialyzed FBS, 0.00702 µM | 86 | 85 | 64.2
RPMI 5 mM glucose + 10% dialyzed FBS, 0.0211 µM | 102 | 90 | 93.2
RPMI 5 mM glucose + 10% dialyzed FBS, 0.0632 µM | 93.2 | 86.7 | 95.3
RPMI 5 mM glucose + 10% dialyzed FBS, 0.19 µM | 87.9 | 86.7 | 107
RPMI 5 mM glucose + 10% dialyzed FBS, 0.569 µM | 95.1 | 91.9 | 83.4
RPMI 5 mM glucose + 10% dialyzed FBS, 1.71 µM | 87.2 | 90.5 | 75.8
RPMI 5 mM glucose + 10% dialyzed FBS, 5.12 µM | 76.6 | 83.7 | 41.6
RPMI 5 mM glucose + 10% dialyzed FBS, 15.4 µM | 87.1 | 84.5 | 77.8
RPMI 5 mM glucose + 10% dialyzed FBS, 46.1 µM | 77.3 | 85.4 | 85.8

AUC of viability dose-response curve
Conditions | [4] | [5] | [6]
HPLM + 10% dialyzed FBS | 438 | 445 | 405
RPMI 5 mM glucose + 10% FBS | 408 | 400 | 450
RPMI 5 mM glucose + 10% dialyzed FBS | 420 | 415 | 379

CC(=O)N[C@@H]1[C@@H](NC(N)=N)\C=C(/O[C@H]1[C@H](O)[C@H](O)CO)C(O)=O
cell viability [%]
Conditions | [1] | [2] | [3]
HPLM + 10% dialyzed FBS, 0.000781 µM | 84.9 | 92.9 | 78.4
HPLM + 10% dialyzed FBS, 0.00234 µM | 105 | 103 | 89.6
HPLM + 10% dialyzed FBS, 0.00702 µM | 116 | 106 | 98.1
HPLM + 10% dialyzed FBS, 0.0211 µM | 119 | 106 | 107
HPLM + 10% dialyzed FBS, 0.0632 µM | 127 | 116 | 107
HPLM + 10% dialyzed FBS, 0.19 µM | 119 | 116 | 123
HPLM + 10% dialyzed FBS, 0.569 µM | 122 | 117 | 40.2
HPLM + 10% dialyzed FBS, 1.71 µM | 120 | 112 | 106
HPLM + 10% dialyzed FBS, 5.12 µM | 122 | 112 | 112
HPLM + 10% dialyzed FBS, 15.4 µM | 115 | 114 | 98.6
HPLM + 10% dialyzed FBS, 46.1 µM | 101 | 113 | 95.4
RPMI 5 mM glucose + 10% FBS, 0.000781 µM | 102 | 93.9 | 80.1
RPMI 5 mM glucose + 10% FBS, 0.00234 µM | 114 | 108 | 90.1
RPMI 5 mM glucose + 10% FBS, 0.00702 µM | 106 | 109 | 125
RPMI 5 mM glucose + 10% FBS, 0.0211 µM | 111 | 113 | 98.6
RPMI 5 mM glucose + 10% FBS, 0.0632 µM | 113 | 123 | 89
RPMI 5 mM glucose + 10% FBS, 0.19 µM | 113 | 112 | 129
RPMI 5 mM glucose + 10% FBS, 0.569 µM | 118 | 105 | 49.5
RPMI 5 mM glucose + 10% FBS, 1.71 µM | 120 | 113 | 128
RPMI 5 mM glucose + 10% FBS, 5.12 µM | 111 | 117 | 136
RPMI 5 mM glucose + 10% FBS, 15.4 µM | 121 | 70.2 | 119
RPMI 5 mM glucose + 10% FBS, 46.1 µM | 113 | 118 | 110
RPMI 5 mM glucose + 10% dialyzed FBS, 0.000781 µM | 100 | 88.9 | 64.5
RPMI 5 mM glucose + 10% dialyzed FBS, 0.00234 µM | 106 | 107 | 82.9
RPMI 5 mM glucose + 10% dialyzed FBS, 0.00702 µM | 114 | 109 | 117
RPMI 5 mM glucose + 10% dialyzed FBS, 0.0211 µM | 121 | 109 | 102
RPMI 5 mM glucose + 10% dialyzed FBS, 0.0632 µM | 117 | 113 | 126
RPMI 5 mM glucose + 10% dialyzed FBS, 0.19 µM | 118 | 107 | 122
RPMI 5 mM glucose + 10% dialyzed FBS, 0.569 µM | 115 | 108 | 38.4
RPMI 5 mM glucose + 10% dialyzed FBS, 1.71 µM | 116 | 112 | 120
RPMI 5 mM glucose + 10% dialyzed FBS, 5.12 µM | 106 | 115 | 121
RPMI 5 mM glucose + 10% dialyzed FBS, 15.4 µM | 134 | 112 | 110
RPMI 5 mM glucose + 10% dialyzed FBS, 46.1 µM | 124 | 100 | 113

AUC of viability dose-response curve
Conditions | [4] | [5] | [6]
HPLM + 10% dialyzed FBS | 464 | 461 | 457
RPMI 5 mM glucose + 10% FBS | 463 | 466 | 421
RPMI 5 mM glucose + 10% dialyzed FBS | 443 | 471 | 419
